Measurements as given in paper PMC9742639, “Inhibition of glycogen synthase kinase-3-beta (GSK3β) blocks nucleocapsid phosphorylation and SARS-CoV-2 replication” (Molecular Biomedicine, 2022).
Where “and” joins values, the source holds several entries; their conditions need not be identical. Equal values may be shown once. Read-outs that look alike come from different tables or passages of the source. Square brackets hold non-standard residues; d marks the D form. Primed or numbered codes have the meaning given here. Ends that are not written are not given here. pS′ = not defined here; pT′ = not defined here

Experiments:
HCoV-229E [1] = experiment: High-content screen / dose-response of HCoV-229E-infected Huh-7.5.1 cells (dsRNA); type: cell-based
SARS-CoV-2 [2] = experiment: High-content screen / dose-response of SARS-CoV-2-infected Huh-7.5.1 cells (dsRNA, nucleocapsid); type: cell-based; conditions: for ED50, activity against SARS-CoV-2 / inhibition at 10 µM: Huh-7.5.1 cells; for ED50, activity against SARS-CoV-2: intracellular N protein; for inhibition at 10 µM: Severe acute respiratory syndrome coronavirus 2
GSK3β = molecular target: T1, GSK3β (Homo sapiens, UniProt P49841); experiment: In vitro inhibition of GSK3β, ADP-Glo Kinase Assay; type: biochemical; conditions: read-out: IC50, GSK3β enzymatic activity
T1 construct: GST; purchased SignalChem G09-10G
T1 sequence (P49841 whole entry): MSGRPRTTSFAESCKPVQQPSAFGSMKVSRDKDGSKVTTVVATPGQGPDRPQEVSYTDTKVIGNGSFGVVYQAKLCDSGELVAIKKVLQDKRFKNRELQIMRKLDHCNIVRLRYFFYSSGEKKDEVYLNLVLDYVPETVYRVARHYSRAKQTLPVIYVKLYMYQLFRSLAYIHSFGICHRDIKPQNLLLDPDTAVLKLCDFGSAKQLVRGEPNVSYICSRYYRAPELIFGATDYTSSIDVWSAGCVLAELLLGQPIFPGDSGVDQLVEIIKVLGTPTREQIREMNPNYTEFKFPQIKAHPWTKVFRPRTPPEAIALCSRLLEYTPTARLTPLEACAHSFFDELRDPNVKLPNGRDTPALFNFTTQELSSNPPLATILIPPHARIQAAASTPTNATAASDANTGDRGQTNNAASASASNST
Experimental: All protein kinase reactions were performed with the ADP-Glo Kinase Assay from ProMega (Madison, WI, USA). Substrate peptides were assayed at a final concentration of ~ 250 μM with 250 μM ATP for 30 min at 30 °C in a final volume of 25 μL. Recombinant nucleocapsid was similarly assayed at a final concentration of 13.4 ng/μL. The concentrations of recombinant protein kinases used were ~ 2 ng/μL.
Supplemental Figure S3: in vitro inhibition of GSK3. ADP-Glo^TM Kinase Assay normalized to the negative control (100% kinase activity), dose-response was analyzed by non-linear regression.

SARS-CoV-2 [3] = experiment: Viral titer from 48-h SARS-CoV-2-infected Calu-3 cells; type: cell-based; conditions: 48 h after infection and treatment, 100 μM
HCoV-229E [4] = experiment: Chou-Talalay synergy with Remdesivir in HCoV-229E-infected cells; type: cell-based; conditions: Chou-Talalay method, CI < 1 synergistic
Experimental: Statistical analyses were performed and figures were prepared using GraphPad Prism 9™ (GraphPad Software, Inc.). Imbedded blots and fluorescent images were generated using GIMP^©. Chou-Talalay synergy analysis was performed using CompuSyn (ComboSyn Inc.). CI values < 1 are defined as synergistic, CI = 1 as additive, and CI > 1 as antagonistic.
Supplemental Figure S4: Synergy experiment. Dose-response combination of Remdesivir (Rem) and T-1686568 (T2) using CompuSyn V1.0. Representative experiment of two independent experiments.

SARS-CoV-2 [5] = experiment: SARS-CoV-2 infection of primary donor-derived colon organoids (intracellular N protein); type: cell-based; conditions: donor intestinal organoids monolayer, 72 hrs post-infection
SARS-CoV-2 [6] = type: cell-based
in vitro = conditions: human
Experimental: (§1) Total number of cells (via nuclei staining) and number of virus-infected cells (via dsRNA and nucleocapsid staining) was measured using the CellInsight CX5 High Content Screening platform (Thermo Fisher), as previously described [24]. Briefly, cell nuclei are stained with Hoechst (33342) for detection at the 350/461 nm wavelength and a region of interest (ROI) marks each cell, which is verified using cell membrane imaging in the bright field. The ROI includes the areas where dsRNA (485/521 nm wavelength) and SARS-CoV-2 nucleocapsid (533/588 nm wavelength) are localized. The software (HCS Studio Cell Analysis Software, version 4.0) tallies ROIs where dsRNA and nucleocapsid are located within stained nuclei by compiling pixel area and intensity measurements. The fluorescence emitted by the dsRNA and nucleocapsid are then quantified for each well. The total intensity of each well indicates the viral load and is normalized against non-infected cells and untreated infected cells. Cell loss (from cytotoxicity or poor adherence) was quantified using the same stain (Hoechst 33342) and was used to normalize the changes in viral load resulting from a decrease in cell numbers. Based on average variation in control treatments between experiments, significant cell loss was considered a loss of > 20% cells relative to the non-infected control.

Huh-7.5.1 cells = experiment: Cell loss / toxicity to Huh-7.5.1 host cells (nuclei count); conditions: 10 µM, infected Huh-7.5.1 cells
Experimental: as §1

GSK3b = molecular target: T2, GSK3b (Homo sapiens, UniProt P49841); experiment: In vitro phosphorylation of nucleocapsid peptides, ADP-Glo; type: biochemical; conditions: for Phosphorylation by GSK3b (Table 2): Mean ± Standard deviation, n = 3, no peptide substrate 1995 ± 133; for Relative phosphorylation by GSK3b: kinase with ATP alone, no peptide = 100, peptide ~250 μM, ATP 250 μM, 30 min
T2 construct: GST; purchased SignalChem G09-10G
T2 sequence (P49841 whole entry): as above

PKACa = PKACa (Homo sapiens, UniProt P17612); experiment: as above; type: biochemical; conditions: kinase with ATP alone, no peptide = 100; peptide ~250 μM, ATP 250 μM, 30 min
PKCa = molecular target: T3, PKCa (Homo sapiens, UniProt P17252); experiment: as above; type: biochemical; conditions: for Phosphorylation by PKCa (Table 2): Mean ± Standard deviation, n = 3, no peptide substrate 1282 ± 51; for Relative phosphorylation by PKCa: kinase with ATP alone, no peptide = 100, peptide ~250 μM, ATP 250 μM, 30 min
T3 construct: GST; purchased SignalChem P61-18G

CDK2 + Cyclin A2 = CDK2 + Cyclin A2 (Homo sapiens, UniProt P24941); experiment: as above; type: biochemical; conditions: kinase with ATP alone, no peptide = 100; peptide ~250 μM, ATP 250 μM, 30 min
CK1d = molecular target: T4, CK1d (Homo sapiens, UniProt P48730); experiment: as above; type: biochemical; conditions: kinase with ATP alone, no peptide = 100; peptide ~250 μM, ATP 250 μM, 30 min
T4 construct: GST; purchased SignalChem C65-10G
T4 sequence (P48730 whole entry): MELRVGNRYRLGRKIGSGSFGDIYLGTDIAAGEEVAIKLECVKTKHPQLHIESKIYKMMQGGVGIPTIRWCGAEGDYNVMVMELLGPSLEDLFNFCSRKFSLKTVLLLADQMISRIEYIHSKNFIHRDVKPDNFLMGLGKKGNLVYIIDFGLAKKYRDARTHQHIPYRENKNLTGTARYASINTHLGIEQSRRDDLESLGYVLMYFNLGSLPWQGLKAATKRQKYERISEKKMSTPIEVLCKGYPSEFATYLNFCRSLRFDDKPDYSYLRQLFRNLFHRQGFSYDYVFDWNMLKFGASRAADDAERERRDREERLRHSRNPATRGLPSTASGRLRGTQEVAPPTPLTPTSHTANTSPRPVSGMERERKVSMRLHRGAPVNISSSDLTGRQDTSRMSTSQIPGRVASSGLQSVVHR

CK1g1 = molecular target: T5, CK1g1 (Homo sapiens, UniProt Q9HCP0); experiment: as above; type: biochemical; conditions: kinase with ATP alone, no peptide = 100; peptide ~250 μM, ATP 250 μM, 30 min
T5 construct: GST; purchased SignalChem C68-11G
T5 sequence (Q9HCP0 whole entry): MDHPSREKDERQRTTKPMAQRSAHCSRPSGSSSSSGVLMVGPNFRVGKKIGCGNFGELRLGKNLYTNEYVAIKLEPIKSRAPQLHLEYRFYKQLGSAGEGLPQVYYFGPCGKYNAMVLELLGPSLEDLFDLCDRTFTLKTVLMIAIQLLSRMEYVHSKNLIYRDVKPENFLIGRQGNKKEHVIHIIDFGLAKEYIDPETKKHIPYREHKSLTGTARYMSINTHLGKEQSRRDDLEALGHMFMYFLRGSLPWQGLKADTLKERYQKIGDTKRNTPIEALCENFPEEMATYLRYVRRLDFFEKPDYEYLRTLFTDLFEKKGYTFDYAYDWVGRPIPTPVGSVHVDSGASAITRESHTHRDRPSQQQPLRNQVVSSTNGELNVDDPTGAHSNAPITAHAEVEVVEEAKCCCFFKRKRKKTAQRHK

ERK1 = molecular target: T6, ERK1 (Homo sapiens, UniProt P27361); experiment: as above; type: biochemical; conditions: kinase with ATP alone, no peptide = 100; peptide ~250 μM, ATP 250 μM, 30 min
T6 construct: GST; purchased SignalChem M29-10G
T6 sequence (P27361 whole entry): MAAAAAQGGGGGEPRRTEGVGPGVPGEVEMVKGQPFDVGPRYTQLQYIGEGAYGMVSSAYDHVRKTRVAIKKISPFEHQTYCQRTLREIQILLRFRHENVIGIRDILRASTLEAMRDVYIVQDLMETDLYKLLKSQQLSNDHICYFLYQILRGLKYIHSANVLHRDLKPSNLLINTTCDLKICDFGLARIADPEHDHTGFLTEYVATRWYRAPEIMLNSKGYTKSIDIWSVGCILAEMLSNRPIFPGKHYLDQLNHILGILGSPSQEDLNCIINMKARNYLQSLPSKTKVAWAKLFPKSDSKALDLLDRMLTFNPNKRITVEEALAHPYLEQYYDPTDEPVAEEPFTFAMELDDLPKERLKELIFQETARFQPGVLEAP

CK2a1 = molecular target: T7, CK2a1 (Homo sapiens, UniProt P68400); experiment: as above; type: biochemical; conditions: kinase with ATP alone, no peptide = 100; peptide ~250 μM, ATP 250 μM, 30 min
T7 construct: GST; purchased SignalChem C70-10G
T7 sequence (P68400 whole entry): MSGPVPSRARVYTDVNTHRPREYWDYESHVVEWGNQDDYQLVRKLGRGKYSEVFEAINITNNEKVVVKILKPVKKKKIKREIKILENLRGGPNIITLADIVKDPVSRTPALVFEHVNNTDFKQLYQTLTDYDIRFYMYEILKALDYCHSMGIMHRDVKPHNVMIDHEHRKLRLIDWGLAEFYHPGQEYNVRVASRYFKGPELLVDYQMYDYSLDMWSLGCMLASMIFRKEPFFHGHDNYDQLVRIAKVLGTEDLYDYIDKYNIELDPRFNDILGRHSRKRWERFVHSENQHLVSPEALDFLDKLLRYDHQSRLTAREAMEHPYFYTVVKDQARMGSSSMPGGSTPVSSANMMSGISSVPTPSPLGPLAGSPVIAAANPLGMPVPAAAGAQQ

CK1a1 = molecular target: T8, CK1a1 (Homo sapiens, UniProt P48729); experiment: as above; type: biochemical; conditions: kinase with ATP alone, no peptide = 100; peptide ~250 μM, ATP 250 μM, 30 min
T8 construct: GST; purchased SignalChem C64-10G
T8 sequence (P48729 whole entry): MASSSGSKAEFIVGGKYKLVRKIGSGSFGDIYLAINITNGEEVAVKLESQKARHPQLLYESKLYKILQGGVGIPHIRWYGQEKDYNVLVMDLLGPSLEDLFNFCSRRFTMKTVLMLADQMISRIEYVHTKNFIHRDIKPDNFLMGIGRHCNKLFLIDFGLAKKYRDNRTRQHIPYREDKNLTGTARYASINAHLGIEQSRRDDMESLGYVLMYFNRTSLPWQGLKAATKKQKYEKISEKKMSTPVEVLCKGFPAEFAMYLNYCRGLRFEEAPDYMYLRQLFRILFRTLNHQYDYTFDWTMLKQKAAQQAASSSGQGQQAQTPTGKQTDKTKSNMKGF

[7] = average of screens 1 and 2, read-out: Average SARS-CoV-2 Nucleocapsid inhibition
[8] = screen 1, read-out: SARS-CoV-2 inhibition (% Nucleocapsid) 1
[9] = screen 2, read-out: SARS-CoV-2 inhibition (% Nucleocapsid) 2
[10] = read-out: SARS-CoV-2 inhibition (% dsRNA)

| Compound | ED50, activity against HCoV-229E (HCoV-229E [1]) | ED50, activity against SARS-CoV-2 (SARS-CoV-2 [2]) | inhibition at 10 µM (SARS-CoV-2 [2]; [7]) [%] | inhibition at 10 µM (SARS-CoV-2 [2]; [8]) [%] | inhibition at 10 µM (SARS-CoV-2 [2]; [9]) [%] | inhibition at 10 µM (SARS-CoV-2 [2]; [10]) [%] | CC50 (in vitro) [µM] | Average cell loss (%) (Huh-7.5.1 cells) | Phosphorylation by GSK3b (Table 2) (GSK3b) | Relative phosphorylation by GSK3b (GSK3b) | Relative phosphorylation by PKACa (PKACa) | Phosphorylation by PKCa (Table 2) (PKCa) | Relative phosphorylation by PKCa (PKCa) | also measured |
| --- | --- | --- | --- | --- | --- | --- | --- | --- | --- | --- | --- | --- | --- | --- |
| CSc1ccc(-n2cnc3ccc(-c4nnc(CCc5cccc(C#N)c5)o4)cc32)cc1 [P-0717632] | ~ 3 μM | 2.7 µM | 79.3 | 75.2 | 83.3 | 68.2 | > 100 | 24.4 |  |  |  |  |  | ED50, activity against SARS-CoV-2 (SARS-CoV-2 [2]; listed as T-1686568): ~ 3 μM; ED80 (SARS-CoV-2 [2]; infected Huh-7.5.1 cells): 10 µM; IC50 (GSK3β): 0.102 µM; reduction of viral titres (SARS-CoV-2 [3]): 2 log; average Combination Index (CI) (HCoV-229E [4]): 0.7; effect on intracellular N protein levels (SARS-CoV-2 [5]): greatly decrease intracellular N protein levels; N protein in remaining infected cells (SARS-CoV-2 [6]): accumulated; S protein expression (SARS-CoV-2 [6]): reduced |
| C[S+]([O-])c1ccc(-c2coc3ccc(-c4nnc(SCc5cccc(F)c5)o4)cc23)cc1 (stereo not shown) [P-7657632] | ~ 3 μM | ~ 3 μM and 2.9 μM | 93.1 | 100 | 86.2 | 100 | 39 | 25.4 |  |  |  |  |  |  |
| CSc1ccc(-c2coc3ccc(-c4nnc(N)o4)cc23)cc1Cl [P-9071942] | ~ 3 μM | ~ 3 μM and 3.3 μM | 94.5 | 100 | 89.1 | 100 | 27 | 29.9 |  |  |  |  |  |  |
| RGGSQASSRSS(pS)RS (RGGSQASSRSS[pS′]RS) [SCV2-N [177-190] - pS188, synthetic peptide modeled after SARS-CoV-2 nucleocapsid phosphorylation sites, pre-phosphorylated at S188] |  |  |  |  |  |  |  |  | 24,585 ± 645 | 1209 | 128 | 3861 ± 71 | 389 |  |
| RNSTPGSSRGT(pS)PAR (RNSTPGSSRGT[pS′]PAR) [SCV2-N [195-209] - pS206, synthetic peptide modeled after SARS-CoV-2 nucleocapsid phosphorylation sites, pre-phosphorylated at S206] |  |  |  |  |  |  |  |  | 24,082 ± 381 | 1068 | 205 | 1531 ± 47 |  | Relative phosphorylation by CDK2 + Cyclin A2 (CDK2 + Cyclin A2): 100; Relative phosphorylation by CK1d (CK1d): 105; Relative phosphorylation by CK1g1 (CK1g1): 105; Relative phosphorylation by ERK1 (ERK1): 100 |
| SQASSRSSSR(pS)RNS (SQASSRSSSR[pS′]RNS) [SCV2-N [180-193] - pS190, synthetic peptide modeled after SARS-CoV-2 nucleocapsid phosphorylation sites, pre-phosphorylated at S190] |  |  |  |  |  |  |  |  | 2957 ± 3 | 111 | 312 | 4161 ± 66 | 418 | Relative phosphorylation by CK2a1 (CK2a1): 100 |
| SSRSRNSSRNS(pT)PG (SSRSRNSSRNS[pT′]PG) [SCV2-N [187-200] - pT198, synthetic peptide modeled after SARS-CoV-2 nucleocapsid phosphorylation sites, pre-phosphorylated at T198] |  |  |  |  |  |  |  |  | 23,031 ± 486 | 1042 | 157 | 7032 ± 319 | 553 | Relative phosphorylation by CDK2 + Cyclin A2 (CDK2 + Cyclin A2): 101; Relative phosphorylation by CK1a1 (CK1a1): 250; Relative phosphorylation by CK1d (CK1d): 152; Relative phosphorylation by CK2a1 (CK2a1): 102; Relative phosphorylation by ERK1 (ERK1): 100 |
